# Results: US20080233127A1, “IMIDAZOLOPYRIMIDINE ANALOGS AND THEIR USE AS PI3 KINASE AND MTOR INHIBITORS” (Wyeth, priority 2007, published 2008)
# What was measured:
# human TOR = biological target: T1, human TOR (Homo sapiens, UniProt P42345); test: mTOR enzyme assay (DELFIA format, purified FLAG-TOR, His6-S6K substrate); format: biochemical; details: 100 μM ATP, 1.25 μM His6-S6K, 2 hours at room temperature; read-out: TOR Kinase Median IC50
# T1 construct: FLAG
# PI3 Kinase = test: PI3K fluorescence polarization assay; format: biochemical; details: 25 μM ATP, diC8-PI(4,5)P2 substrate, 1 hour at 25° C.; read-out: PI3 Kinase Median IC50
# Description: Nunc 384 well black polypropylene fluorescent plates are used for PI3K assays. Reactions are quenched by the addition of EDTA to a final concentration of 10 mM. Final reaction volumes are 10 μl. […] Reactions are allowed to proceed for one hour at 25° C. After 1 hour, GST-tagged GRP1 (general receptor for phosphoinositides) PH domain fusion protein is added to a final concentration of 100 nM, and BODIPY-TMRI(1,3,4,5)P4 (Echelon) is also added to a final concentration of 5 nM. Final sample volumes are 25 μl with a final DMSO concentration of 0.8%. Assay Plates are read on Perkin-Elmer Envision plate readers with appropriate filters for Tamra [BODIPY-TMRI(1,3,4,5)P4].
Compound,melting point,IC50 (human TOR),IC50 (PI3 Kinase)
"Nc1ncc(-c2nc(N3CCOCC3)c3ncn(C4CCN(Cc5ccccc5)CC4)c3n2)cn1 [Compound 31, 5-[9-(1-benzylpiperidin-4-yl)-6-morpholin-4-yl-9H-purin-2-yl]pyrimidin-2-amine]",238 to 240 °C,220 nM,43 nM
"Nc1ccc(-c2nc(N3CCOCC3)c3ncn(C4CCN(Cc5ccccc5)CC4)c3n2)cn1 [Compound 32, 5-[9-(1-benzylpiperidin-4-yl)-6-morpholin-4-yl-9H-purin-2-yl]pyridin-2-amine]",198 to 200 °C,120 nM,160 nM
"Oc1cncc(-c2nc(N3CCOCC3)c3ncn(C4CCN(Cc5ccc(F)nc5)CC4)c3n2)c1 [Compound 88, 5-(9-{1-[(6-fluoropyridin-3-yl)methyl]piperidin-4-yl}-6-morpholin-4-yl-9H-purin-2-yl)pyridin-3-ol]",,500 nM,85 nM
"CNC(=O)Nc1ccc(-c2nc(N3CCOCC3)c3ncn(C4CCN(Cc5cccnc5)CC4)c3n2)cc1 [Compound 89, 1-methyl-3-(4-(6-morpholino-9-(1-(pyridin-3-ylmethyl)piperidin-4-yl)-9H-purin-2-yl)phenyl)urea]",,9.7 nM,340 nM
"CCNC(=O)Nc1ccc(-c2nc(N3CCOCC3)c3ncn(C4CCN(Cc5cccnc5)CC4)c3n2)cc1 [Compound 90, 1-ethyl-3-(4-(6-morpholino-9-(1-(pyridin-3-ylmethyl)piperidin-4-yl)-9H-purin-2-yl)phenyl)urea]",,12 nM,1350 nM
"C=CC(=O)n1cnc2c(N3CCOCC3)nc(-c3cccc(O)c3)nc21 [Compound 91, 1-(2-(3-hydroxyphenyl)-6-morpholino-9H-purin-9-yl)prop-2-en-1-one]",,73 nM,43 nM
